According to PubChem BioAssay (NCI):
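48-hour exposure; five concentrations; linearly interpolated endpoints. At the TGI there is no net growth.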

Key:
Experiment in all cases: growth of human tumour cells (NCI), 48 h
HOP-92 NSCLC = test system: HOP-92 NSCLC
SF-295 CNS = test system: SF-295 CNS
OVCAR-8 ovarian = test system: OVCAR-8 ovarian
SF-268 CNS = test system: SF-268 CNS
HS 578T breast = test system: HS 578T breast
A549 NSCLC = test system: A549 NSCLC
SF-539 CNS = test system: SF-539 CNS
NCI-H460 lung = test system: NCI-H460 lung
HT29 colon = test system: HT29 colon
SK-MEL-2 melanoma = test system: SK-MEL-2 melanoma

SMILES | TGI (HOP-92 NSCLC) [µM] | TGI (SF-295 CNS) [µM] | TGI (OVCAR-8 ovarian) [µM] | TGI (SF-268 CNS) [µM] | TGI (HS 578T breast) [µM] | TGI (A549 NSCLC) [µM] | TGI (SF-539 CNS) [µM] | TGI (NCI-H460 lung) [µM] | TGI (HT29 colon) [µM] | TGI (SK-MEL-2 melanoma) [µM]
Cc1cc(C)nc(NS(=O)(=O)c2ccc(NC(=O)c3cccc4c(NNc5ccc(S(=O)(=O)N=C(N)N)cc5)c5ccccc5nc34)cc2)n1 | > 50 | > 50 | > 50 | > 50 | > 50 | > 50 | > 50 | > 50 | > 50 | 
COC(=O)[C@H](Cc1ccccc1)NC(=O)N(CCC#N)CCN(C(=O)N[C@@H](Cc1ccccc1)C(=O)OC)c1ccccc1 | 39.4 | > 100 | > 100 | 45.6 | > 100 | > 100 | 41.1 |  |  | 39.3
COc1cc([N+](=O)[O-])c(OC)c2c(Nc3ccc(S(=O)(=O)O)c4cc(S(=O)(=O)O)cc(S(=O)(=O)O)c34)cc(C)nc12 |  |  | > 100 | > 100 | > 100 | > 100 | > 100 |  | > 100 | > 100
COC(=O)C1(O)C(c2ccccc2)=NC2(C)CCCC21 (stereo unspecified) | > 100 | > 100 | > 100 | > 100 | > 100 | > 100 |  | > 100 | > 100 | > 100
CC#CC(O)(C(=O)OC1CC(C)N(C)C(C)(C)C1)C1CCCC1 (stereo unspecified) |  | > 100 | > 100 | > 100 |  | > 100 | > 100 |  | > 100 | 
O=[N+]([O-])c1cccc2c(N=Nc3ccc4ccccc4c3O)c(O)cc(S(=O)(=O)O)c12 | > 100 | > 100 | > 100 | > 100 | > 100 | > 100 |  |  | > 100 | > 100
CSc1nc2c(ncn2C2OC(CO)C(O)C(O)C2O)c(=O)[nH]1 (stereo unspecified) | > 100 | > 100 | > 100 | > 100 |  | > 100 | > 100 | > 100 | > 100 | > 100
O=C1C2=C(CCC2)Nc2cccc3ncn1c23 |  | > 100 | > 100 | > 100 |  | > 100 | > 100 | > 100 |  | > 100
C=C1C(=O)C23C(O)CC4C5(C)CCCC4(C(O)OC5)C2C(OC(C)=O)CC1C3O (stereo unspecified) | 14.6 | 41.4 | 14.1 | 32.4 |  | 51.5 | 25.8 | 15.9 | 17.6 | 30.3
Cc1cc(C)c(/C=C(\C(=C/c2c(C)cc(C)cc2C)[N+](=O)[O-])[N+](=O)[O-])c(C)c1 | > 100 | > 100 |  |  |  | > 100 | > 100 | > 100 | > 100 | > 100
CCOP(=O)(OCC)OC1CC(n2cc(C)c(=O)n(C)c2=O)OC1CO[Si](C)(C)C(C)(C)C (stereo unspecified) |  | > 100 | > 100 | > 100 | > 100 | > 100 | > 100 | > 100 | > 100 | > 100
COc1cc2[nH]c(-c3ccccc3)cc(=O)c2c(OC)c1OC |  | > 100 | > 100 | > 100 | > 100 | > 100 |  | > 100 | > 100 | > 100
O=[N+]([O-])/C(Cl)=C(\NCCN/C(C(Cl)=C(Cl)Cl)=C(/Cl)[N+](=O)[O-])C(Cl)=C(Cl)Cl | 53.9 | > 100 | > 100 | > 100 |  | > 100 | > 100 | > 100 |  | 
COc1ccc(N2C(=O)C3c4[nH]c5ccccc5c4C4CCCCCCCCCC4C3C2=O)cc1 (stereo unspecified) |  | > 10 | > 10 | > 10 | > 10 | > 10 | > 10 | > 10 | > 10 | > 10
O=C(O)/C=C\C(=O)Nc1ccc(S(=O)(=O)c2ccc(NC(=O)/C=C\C(=O)O)cc2)cc1 | > 100 | > 100 | > 100 | > 100 |  | > 100 | > 100 |  | > 100 | > 100
COc1ccc(/C=N/n2c(C)nc3c(sc(=S)n3-c3ccccc3)c2=O)cc1 | > 100 | > 100 | > 100 | > 100 |  | > 100 | > 100 | > 100 | > 100 | 
O=C(CC(C(=O)c1ccco1)c1ccco1)c1ccco1 (stereo unspecified) | > 100 | > 100 | > 100 | > 100 | > 100 | > 100 | > 100 | > 100 | > 100 | 
C[C@H]1OC(=O)[C@@H]2N=NN(Cc3ccccc3)[C@H]12 | > 100 | > 100 | > 100 | > 100 |  | > 100 | > 100 | > 100 | > 100 | > 100
